Test results reported in patent US20090191636A1, “Method of Producing Transgenic Graminaceous Cells and Plants” (priority 2006, published 2009).

Key:
[1] = tested on: wheat embryos derived from mature dried grain of the cultivar Bobwhite; experiment: Effect of D-amino acids on regeneration of wheat from embryos of mature dried grain (Bobwhite); type: cell-based, Triticum aestivum; settings: for proportion (%) of explants regenerating after 3 weeks, Average / proportion (%) of explants regenerating after 3 weeks, Experiment number 1 / proportion (%) of explants regenerating after 3 weeks, Experiment number 2 / proportion (%) of explants regenerating after 3 weeks, Experiment number 3: n = 20
Experimental: (§1) A range of concentrations of the D-amino acids D-serine and D-alanine were tested for effects on wheat regeneration and germination from embryos derived from mature dried grain of the cultivar Bobwhite.

[2] = tested on: wheat mature dried grain of the cultivar Ventura; experiment: Effect of D-amino acids on germination of wheat mature dried grain (Ventura); type: in vivo; settings: n = 15
Experimental: [Worded in the source for another variant; this variant is reported under the same test.] as §1

[3] = tested on: wheat mature dried grain of the cultivar Bobwhite; experiment: Effect of D-amino acids on germination of wheat mature dried grain (Bobwhite); type: in vivo, Triticum aestivum; settings: n = 15
Experimental: as §1

[4] = tested on: wheat embryos derived from mature dried grain of the cultivar Ventura; experiment: Effect of D-amino acids on regeneration of wheat from embryos of mature dried grain (Ventura); type: cell-based; settings: n = 20

C[C@@H](N)C(=O)O [D-alanine]
proportion (%) of explants regenerating after 3 weeks, Average ([1]; 0.5 mM): 20%
proportion (%) of explants regenerating after 3 weeks, Experiment number 1 ([1]; 0.5 mM): 30%
proportion (%) of explants regenerating after 3 weeks, Experiment number 2 ([1]; 0.5 mM): 30%
proportion (%) of explants regenerating after 3 weeks, Experiment number 3 ([1]; 0.5 mM): 0%
proportion (%) of explants regenerating after 3 weeks, Average ([1]; 1 mM): 20%
proportion (%) of explants regenerating after 3 weeks, Experiment number 1 ([1]; 1 mM): 35%
proportion (%) of explants regenerating after 3 weeks, Experiment number 2 ([1]; 1 mM): 21%
proportion (%) of explants regenerating after 3 weeks, Experiment number 3 ([1]; 1 mM): 5%
proportion (%) of explants regenerating after 3 weeks, Average ([1]; 3 mM): 15%
proportion (%) of explants regenerating after 3 weeks, Experiment number 1 ([1]; 3 mM): 20%
proportion (%) of explants regenerating after 3 weeks, Experiment number 2 ([1]; 3 mM): 25%
proportion (%) of explants regenerating after 3 weeks, Experiment number 3 ([1]; 3 mM): 0%
proportion (%) of explants regenerating after 3 weeks, Average ([1]; 5 mM): 3%
proportion (%) of explants regenerating after 3 weeks, Experiment number 1 ([1]; 5 mM): 5%
proportion (%) of explants regenerating after 3 weeks, Experiment number 2 ([1]; 5 mM): 5%
proportion (%) of explants regenerating after 3 weeks, Experiment number 3 ([1]; 5 mM): 0%
proportion (%) of explants regenerating after 3 weeks, Average ([1]; 10 mM): 0%
proportion (%) of explants regenerating after 3 weeks, Experiment number 1 ([1]; 10 mM): 0%
proportion (%) of explants regenerating after 3 weeks, Experiment number 2 ([1]; 10 mM): 0%
proportion (%) of explants regenerating after 3 weeks, Experiment number 3 ([1]; 10 mM): 0%
levels that reduced the regeneration and germination of wheat plants ([1]; regeneration and germination (Tables 4 and 5)): > 5 mM
germination: proportion (%) of explants regenerating after 1 week, Average ([2]; 0.5 mM): 73%
germination: proportion (%) of explants regenerating after 1 week, Experiment number 1 ([2]; 0.5 mM): 65%
germination: proportion (%) of explants regenerating after 1 week, Experiment number 2 ([2]; 0.5 mM): 65%
germination: proportion (%) of explants regenerating after 1 week, Experiment number 3 ([2]; 0.5 mM): 90%
germination: proportion (%) of explants regenerating after 1 week, Average ([2]; 1 mM): 75%
germination: proportion (%) of explants regenerating after 1 week, Experiment number 1 ([2]; 1 mM): 75%
germination: proportion (%) of explants regenerating after 1 week, Experiment number 2 ([2]; 1 mM): 75%
germination: proportion (%) of explants regenerating after 1 week, Experiment number 3 ([2]; 1 mM): 75%
germination: proportion (%) of explants regenerating after 1 week, Average ([2]; 3 mM): 75%
germination: proportion (%) of explants regenerating after 1 week, Experiment number 1 ([2]; 3 mM): 80%
germination: proportion (%) of explants regenerating after 1 week, Experiment number 2 ([2]; 3 mM): 65%
germination: proportion (%) of explants regenerating after 1 week, Experiment number 3 ([2]; 3 mM): 80%
germination: proportion (%) of explants regenerating after 1 week, Average ([2]; 5 mM): 67%
germination: proportion (%) of explants regenerating after 1 week, Experiment number 1 ([2]; 5 mM): 70%
germination: proportion (%) of explants regenerating after 1 week, Experiment number 2 ([2]; 5 mM): 55%
germination: proportion (%) of explants regenerating after 1 week, Experiment number 3 ([2]; 5 mM): 75%
germination: proportion (%) of explants regenerating after 1 week, Average ([2]; 10 mM): 47%
germination: proportion (%) of explants regenerating after 1 week, Experiment number 1 ([2]; 10 mM): 65%
germination: proportion (%) of explants regenerating after 1 week, Experiment number 2 ([2]; 10 mM): 30%
germination: proportion (%) of explants regenerating after 1 week, Experiment number 3 ([2]; 10 mM): 45%
germination: proportion (%) of explants regenerating after 1 week, Average ([2]; 20 mM): 5%
germination: proportion (%) of explants regenerating after 1 week, Experiment number 1 ([2]; 20 mM): 5%
germination: proportion (%) of explants regenerating after 1 week, Experiment number 2 ([2]; 20 mM): 25%
germination: proportion (%) of explants regenerating after 1 week, Experiment number 3 ([2]; 20 mM): 40%
proportion (%) of explants germinated after 1 week, Average ([3]; 0.5 mM): 77%
proportion (%) of explants germinated after 1 week, Experiment Number 1 ([3]; 0.5 mM): 55%
proportion (%) of explants germinated after 1 week, Experiment Number 2 ([3]; 0.5 mM): 75%
proportion (%) of explants germinated after 1 week, Experiment Number 3 ([3]; 0.5 mM): 100%
proportion (%) of explants germinated after 1 week, Average ([3]; 1 mM): 77%
proportion (%) of explants germinated after 1 week, Experiment Number 1 ([3]; 1 mM): 70%
proportion (%) of explants germinated after 1 week, Experiment Number 2 ([3]; 1 mM): 80%
proportion (%) of explants germinated after 1 week, Experiment Number 3 ([3]; 1 mM): 80%
proportion (%) of explants germinated after 1 week, Average ([3]; 3 mM): 73%
proportion (%) of explants germinated after 1 week, Experiment Number 1 ([3]; 3 mM): 70%
proportion (%) of explants germinated after 1 week, Experiment Number 2 ([3]; 3 mM): 70%
proportion (%) of explants germinated after 1 week, Experiment Number 3 ([3]; 3 mM): 80%
proportion (%) of explants germinated after 1 week, Average ([3]; 5 mM): 62%
proportion (%) of explants germinated after 1 week, Experiment Number 1 ([3]; 5 mM): 50%
proportion (%) of explants germinated after 1 week, Experiment Number 2 ([3]; 5 mM): 85%
proportion (%) of explants germinated after 1 week, Experiment Number 3 ([3]; 5 mM): 50%
proportion (%) of explants germinated after 1 week, Average ([3]; 10 mM): 28%
proportion (%) of explants germinated after 1 week, Experiment Number 1 ([3]; 10 mM): 10%
proportion (%) of explants germinated after 1 week, Experiment Number 2 ([3]; 10 mM): 35%
proportion (%) of explants germinated after 1 week, Experiment Number 3 ([3]; 10 mM): 40%
proportion (%) of explants regenerating after 3 weeks, Average ([4]; 0.5 mM): 8%
proportion (%) of explants regenerating after 3 weeks, Experiment number 1 ([4]; 0.5 mM): 10%
proportion (%) of explants regenerating after 3 weeks, Experiment number 2 ([4]; 0.5 mM): 10%
proportion (%) of explants regenerating after 3 weeks, Experiment number 3 ([4]; 0.5 mM): 5%
proportion (%) of explants regenerating after 3 weeks, Average ([4]; 1 mM): 5%
proportion (%) of explants regenerating after 3 weeks, Experiment number 1 ([4]; 1 mM): 0%
proportion (%) of explants regenerating after 3 weeks, Experiment number 2 ([4]; 1 mM): 10%
proportion (%) of explants regenerating after 3 weeks, Experiment number 3 ([4]; 1 mM): 5%
proportion (%) of explants regenerating after 3 weeks, Average ([4]; 3 mM): 7%
proportion (%) of explants regenerating after 3 weeks, Experiment number 1 ([4]; 3 mM): 10%
proportion (%) of explants regenerating after 3 weeks, Experiment number 2 ([4]; 3 mM): 10%
proportion (%) of explants regenerating after 3 weeks, Experiment number 3 ([4]; 3 mM): 0%
proportion (%) of explants regenerating after 3 weeks, Average ([4]; 5 mM): 3%
proportion (%) of explants regenerating after 3 weeks, Experiment number 1 ([4]; 5 mM): 5%
proportion (%) of explants regenerating after 3 weeks, Experiment number 2 ([4]; 5 mM): 5%
proportion (%) of explants regenerating after 3 weeks, Experiment number 3 ([4]; 5 mM): 0%
proportion (%) of explants regenerating after 3 weeks, Average ([4]; 10 mM): 0%
proportion (%) of explants regenerating after 3 weeks, Experiment number 1 ([4]; 10 mM): 0%
proportion (%) of explants regenerating after 3 weeks, Experiment number 2 ([4]; 10 mM): 0%
proportion (%) of explants regenerating after 3 weeks, Experiment number 3 ([4]; 10 mM): 0%
proportion (%) of explants regenerating after 3 weeks, Average ([4]; 20 mM): 0%
proportion (%) of explants regenerating after 3 weeks, Experiment number 1 ([4]; 20 mM): 0%
proportion (%) of explants regenerating after 3 weeks, Experiment number 2 ([4]; 20 mM): 0%
proportion (%) of explants regenerating after 3 weeks, Experiment number 3 ([4]; 20 mM): 0%
